{"source": "patent US10603325B2", "about": "“Methods of treating age-related symptoms in mammals and compositions therefor” (University of Maryland, priority 2014, dated 2020)", "key": {"[1]": {"system": "normal and HGPS fibroblasts", "test": "ATP assay", "format": "cell-based, human", "conditions": "MB 100 nM, 5 weeks, vs mock", "method": "(§1) (Upper panel). Normalized relative HP1α protein levels in each sample are shown in the lower graph.\n(§2) To evaluate the effects of MB on mitochondria, ATP levels, mitochondrial superoxide (MitoSOX) and overall intracellular ROS (DCFDA) in Mock or MB-treated cells.\nIntracellular ATP content was measured by using luminescence ATP detection System (ATPlite, PerkinElmer). Briefly, fibroblast cells were harvested with 0.05% trypsin-EDTA and counted. The same number of 2,500 cells from each fibroblast sample was seeded onto a 96-well black plate (triplicate). After the cells had been lysed with the lysis buffer for five minutes, the substrate solution was added and mixed for another five minutes to conduct the reaction for light generation. After dark adaption for 10 minutes, the luminescence intensity of each well was acquired at luminescence mode with SoftMax Pro software connecting to SpectraMax M5 Microplate Reader."}, "[2]": {"system": "Epiderm Full Thickness (EFT-412) skin tissue", "test": "Histological analysis (H&E) of skin tissue", "format": "cell-based", "conditions": "MB at various concentration for two weeks", "from_the_text": "H&E staining on the MB treated skin tissues. […] See the results obtained in FIG. 15."}, "HGPS cells [3]": {"system": "HGPS cells", "test": "Perinuclear heterochromatin (TEM) and HP1α immunostaining/western blotting", "format": "cell-based, human", "from_the_text": "as §1\nBased on the results from FIG. 4 and FIGS. 5A-D, it was hypothesized that While MB is a universal mitochondrial-targeting antioxidant for both normal and HGPS cells, it has a specific role in HGPS cells by dislocating progerin away from the nuclear membrane. Previous studies reported that the anchorage of progerin to the nuclear membrane caused a loss of perinuclear heterochromatin in HGPS Cells. […] The rescue of heterochromatin loss by MB was further verified by immunostaining and western blotting using an antibody against heterochromatin protein 1alpha (HP1α).\n(§3) Passage-matched normal or HGPS skin fibroblasts were grown on 35-mm glass bottom dish until 80% confluence. Cells were prepared for transmission electron microscopic analysis following the protocol of McCord et al. Briefly, cells were fixed with 2.5% glutaraldehyde in 0.1 M sodium cacodylate (pH 7.4) for one hour at room temperature. Specimens were washed three times with 0.1 M sodium cacodylate and post-fixed for one hour with 1% osmium tetroxide in 0.1 M sodium cacodylate at room temperature. After washing three times with distilled water, specimens were incubated with 2% aqueous uranyl acetate at room temperature. The specimens were dehydrated in ethanol gradients: 35% for 10min, 50% for 10min, 70% for 10min, for 95% for 10 min, and 100% for 3×5 min. The infiltration was performed in EtOH: EPON resin mixture at various ratio from 1:1, 1:2, 1:3 or complete EPON for one hour each ratio. The specimens were finally embedded in complete EPON at 60° C. over night. […] Mitochondrial morphological quantification was conducted blindly by a trained TEM expert. Two observers scored over 360 mitochondria from 10 randomly selected cells in each group blindly. […] Over 300 mitochondria in either normal or HGPS lines were blindly scored according to these criteria."}, "normal fibroblasts": {"system": "normal fibroblasts", "test": "RNA-seq gene expression differential analysis", "format": "cell-based, human", "conditions": "Normal+Vehicle vs. Normal+MB, 100 nM", "method": "(§4) FIG. 6(A)-(B): Methylene Blue Rescues Gene Expression in HGPS Cells • (A) Pie chart showing the percentages and (B) the counted gene numbers of unaffected- and affected-genes in paired comparison among four groups (Normal+Vehicle vs. Progeria+Vehicle; Normal+Vehicle vs. Normal+MB; Progeria+Vehicle vs. Progeria+MB; and Normal+Vehicle+Progeria+MB).\n(§5) Chromatin re-organization after MB treatment may induce gene expression changes. To examine the effects of MB on gene expression, RNA-seq was conducted in Mock and MB treated normal and HGPS cells, and gene expression differential analysis was performed using Tophat and Cufflinks suite of tools (see Methods). The RNA-seq data was obtained from two biological replicates; each included four groups of samples (Normal+Vehicle; Normal+MB; HGPS+Vehicle; and HGPS+MB). Pairwise comparisons were conducted (FIG. 6A-B). Consistent with previous studies, there are more than 20% differentially expressed genes (up/down: 7.79%/14.18%) in HGPS cells vs. normal fibroblasts (FIG. 6A-1).\n(§6) For RNA sequencing experiments, the cell pellets of Normal or HGPS fibroblasts were collected from two individually cultured cells treated with vehicle or 100 nM MB from P15 or P16 to P20. Total RNA was extracted with Trizol (Life Sciences), followed by RNA precipitation with isopropanol, then purified using the RNeasy Mini Kit (Qiagen). The RNA quality was checked using Agilent 2100 Bioanalyzer showing good RIN numbers (8.90=9.70) in all eight samples. The RNA-seq sample preparation and sequencing were conducted according to the Illumina Truseq RNA sample preparation V2 guide by the IBBR Sequencing Core Facility at the University of Maryland. RNA-seq mapping and gene expression differential analysis was performed using Tophat and Cufflinks suite of tools as described previously by Trapnell et al."}, "HGPS fibroblasts": {"system": "HGPS fibroblasts", "test": "RNA-seq gene expression differential analysis", "format": "cell-based, human", "method": "as §4, §5, §6"}, "[4]": {"system": "EpiDerm Full Thickness (EFT-412)", "test": "ECM gene expression analysis (quantitative PCR array)", "format": "cell-based", "conditions": "MB for two weeks", "method": "The expression of ECM genes were analyzed by quantitative PCR array on EpiDerm Full Thickness (EFT-412).\nEFT-412 tissues were treated with MB for 2 weeks. […] Using RCP arrays for ECM remodeling genes. See results obtained in FIG. 14."}, "[5]": {"system": "PGC-1α in normal and HGPS fibroblasts", "test": "PGC-1α expression (western blot, quantitative RT-PCR)", "format": "cell-based, human", "conditions": "MB 100 nM, 8 weeks"}, "Skin tissues": {"system": "Skin tissues", "test": "Skin hydration test (DPM9003)", "format": "cell-based", "conditions": "MB for 2 weeks", "method": "Skin tissues were treated with MB for 2 weeks, then skin hydration was detected by using DPM9003 with 4 mm probe. […] See the results obtained in FIG. 13. The noted small variations appear to have been due to pressure and leakage of medium."}, "[6]": {"system": "mitochondria in normal and HGPS fibroblasts", "test": "TEM scoring of mitochondrial abnormalities", "format": "cell-based, human", "conditions": "MB 100 nM, 8 weeks", "method": "as §1, §2\nas §3, with “min.” for “min. The infiltration was performed in EtOH: EPON resin mixture at various ratio from 1:1, 1:2, 1:3 or complete EPON for one hour each ratio. The specimens were finally embedded in complete EPON at 60° C. over night.”"}, "HGPS cells [7]": {"system": "HGPS cells", "test": "Senescence: SA-β-gal assay and p16 expression analysis", "format": "cell-based, human", "conditions": "MB-treated vs mock-treated HGPS cells", "method": "SA-β-gal activity assay was performed according to the manufacturer's protocol (#9860; Cell Signaling). Briefly, fibroblasts cells grown on six-well plate were fixed in 1× fixative solution containing 2% formaldehyde and […] for 10 minutes, and then stained overnight at 37° C. with the (3-galactosidase staining solution at pH 6.0 for 15 hours. Images were acquired by Zeiss AX10 microscope with a SPOT PURSUIT camera."}, "skin fibroblast cells": {"system": "skin fibroblast cells", "test": "Cell viability after H2O2 insults", "format": "cell-based, human", "conditions": "H2O2 1 mM, 60 minutes; low and high concentrations of MB", "method": "MB or other antioxidant treated skin fibroblast cells were incubated with PBS containing H2O2 at 1 mM for 60 minutes. The cells were then washed three times using PBS and subjected to a cellular stress assay (as described above in 2). See the results obtained in FIG. 11."}, "progerin in HGPS cells": {"system": "progerin in HGPS cells", "test": "Confocal microscopy of progerin distribution", "format": "cell-based, human", "conditions": "MB treated HGPS cells, anti-progerin antibody staining"}, "[8]": {"system": "normal and HGPS fibroblasts", "test": "ROS assays by flow cytometry (MitoSOX, DCFDA)", "format": "cell-based, human", "method": "as §1, §2\nTo measure mitochondrial superoxide, MB or other antioxidant treated skin fibroblast cells cultured on 60-mm dishes were incubated with fresh complete medium containing 5 μM MitoSOXRed (Life Technologies) at 37° C. After 30 minutes, stained cells were harvested by trypsin digestion and rinsed twice with PBS. Single cell suspensions in 400 μl PBS were prepared for FACS analysis (FACS Canto II; BD). MitoSOX Red was excited by laser at 488 nm, and the data was collected at 582±21 nm. See results in FIG. 10.\nTo measure mitochondrial superoxide, cells grown on 60-mm dishes were incubated with fresh complete medium containing 5 μM MitoSOX Red (Life Technologies, M36008) at 37° C. After 30 minutes, stained cells were harvested by trypsin digestion and rinsed twice with PBS. Single cell suspensions in 400 μl PBS were prepared for FACS analysis (FACS Canto II; BD). […] Mitochondrial membrane potential (MMP, Life Technologies, M34152) and Annexin V-positive apoptotic cells (BD Pharmingen, 556547) were measured according to manufacturer's protocol. Flow cytometry was performed by FACS Cantoll (BD) and the data were analyzed by FlowJo Software."}, "[9]": {"conditions": "HGPS+Vehicle vs. HGPS+MB, 100 nM"}}, "note": "“Also recorded” adds a separate entry of the source.", "data": [{"smiles": "CN(C)c1ccc2nc3ccc(N(C)C)cc3[s+]c2c1.[Cl-]", "note": "[MB, 3,7-bis(dimethylamino)-phenothiazin-5-ium chloride]", "values": [{"measurement": "ATP production", "setting": "[1]", "value": "Significant improvements in ATP production"}, {"measurement": "dermis / skin thickness", "setting": "[2]", "value": "increase dermis thickness; also recorded: Increases Skin Thickness"}, {"measurement": "HP1α protein level", "setting": "HGPS cells [3]; MB 100 nM, 6 weeks", "value": "upregulation of HP1α protein level"}, {"measurement": "nuclear HP1α staining", "setting": "HGPS cells [3]; MB 100 nM, 6 weeks", "value": "increase in nuclear HP1α staining"}, {"measurement": "perinuclear heterochromatin organization (TEM)", "setting": "HGPS cells [3]; MB 8 weeks", "value": "readily apparent restoration of perinuclear heterochromatin organization"}, {"measurement": "genes with significant expression changes, down", "setting": "normal fibroblasts", "value": 0.14, "unit": "%"}, {"measurement": "genes with significant expression changes, up", "setting": "normal fibroblasts", "value": 0.19, "unit": "%"}, {"measurement": "genes affected by MB, down", "setting": "HGPS fibroblasts; [9]", "value": 0.45, "unit": "%"}, {"measurement": "genes affected by MB, up", "setting": "HGPS fibroblasts; [9]", "value": 1.52, "unit": "%"}, {"measurement": "number of differentially expressed genes", "setting": "HGPS fibroblasts; Normal+Vehicle vs. HGPS+MB, after one month of MB treatment", "value": 1674}, {"measurement": "normal gene expression (3D skin tests)", "setting": "[4]", "value": "little or no effect on normal gene expression"}, {"measurement": "expression of PGC-1α", "setting": "[5]", "value": "stimulated the expression of PGC-1α"}, {"measurement": "skin hydration", "setting": "Skin tissues", "value": "did not increase skin hydration"}, {"measurement": "number of severely defective mitochondria", "setting": "[6]", "value": "significant reduction in the number of severely defective mitochondria"}, {"measurement": "senescence (SA-β-gal, p16 expression)", "setting": "HGPS cells [7]", "value": "younger than the mock-treated cells"}, {"measurement": "cell viability upon hydrogen peroxide treatment", "setting": "skin fibroblast cells", "value": "significantly improved cell viability"}, {"measurement": "progerin distribution in nucleus", "setting": "progerin in HGPS cells", "value": "clear redistribution of progerin from the nuclear rim into the nucleoplasm"}, {"measurement": "ROS levels (MitoSOX, DCFDA)", "setting": "[8]; MB 100 nM, 8 weeks, vs mock", "value": "reductions in ROS levels"}, {"measurement": "MitoSOX level (mitochondria specific superoxide)", "setting": "[8]; four weeks treatment, normal and HGPS fibroblasts, comparison with NAC, MitoQ, MitoTEMPO", "value": "significant decrease of MitoSOX level"}]}]}
